Key:
Assay type in all cases: cell-based, rat
[1] = system: Hsp27, Hsp40, Hsp60, Hsp70, Hsp90 expression in Tsc2-sh neurons; test: Western blot of heat shock proteins in Tsc2-sh neurons; settings: for down-regulating Hsp27 expression: increasing doses for four days DIV 9-13
From the text: To investigate the mechanism and explore the pharmacological window by which 17-AGG increases ciliation in Tsc2-knockdown neurons, the heat shock response in these neurons was examined. The heat shock proteins (Hsps) are divided into six families based on their size, and these proteins function in multi-component complexes that are closely inter-related (Chatterjee and Burns, Targeting Heat Shock Proteins in Cancer: A Promising Therapeutic Approach; Int J Mol Sci 18 (2017)). In addition, while most of them are constitutively expressed, some are expressed only under stress (Garrido et al., Heat shock proteins 27 and 70: anti-apoptotic proteins with tumorigenic properties; Cell Cycle 5, 2592-2601 (2006)). Expression levels of Hsp90 and other HSP family members at DIV13 and DIV20 was assessed following four days of treatment with different concentrations of the Hsp90 inhibitor 17-AGG. In the absence of any compound, Tsc2-knockdown neurons had increased levels of the small heat shock protein 27 (Hsp27) with no change in Hsp90, Hsp70, Hsp60 and Hsp40 (FIGS. 5A-L). […] In addition, there was no change observed in Hsp27 expression due to treatment with 17-AGG in Tsc2 knockdown neurons at DIV20, consistent with the lack of effect on cilia at that age (FIGS. 5G-H, FIG. 10F). Inhibition of the Hsp90 pathway by 17-AGG was confirmed by induction of Hsp40 and Hsp70, consistent with the reported release of Hsp90-dependent inhibition on HSF1 (Zou et al., Repression of heat shock transcription factor HSF1 activation by HSP90 (HSP90 complex) that forms a stress-sensitive complex with HSF1; Cell 94, 471-480 (1998)) (FIGS. 5A, C, E, G, K). It was then evaluated whether Hsp27 upregulation was linked to mTORC1 hyper-activation. […] These findings indicate that Hsp27 contributes to the mTORC1-dependent mechanism implicated in defective ciliation under loss of neuronal TSC1/2 activity.
To test whether Hsp27 down-regulation may contribute to restoring ciliation in Tsc2-deficient neurons, Hsp27 was knocked-down by hspB1 gene silencing using lentiviral expression of RFP-tagged Hsp27shRNA (RFP-Hsp27sh) or scrambled shRNA as a control (RFP-C).
The effect of CUDC-305 and NPV-HSP-990 on Hsp27 expression was then tested.
Protein extracts were lysed in 1×SDS (22 mM Tris-HCl pH 6.8, 4% Glycerol, 0.8% SDS, 1.6% β-mercaptoethanol, bromphenol blue) sample buffer, heated to 95° C. for 5 min and stored frozen. Before being subjected to discontinuous gel electrophoresis, equal amounts of all protein lysates were verified by Coomassie gel staining. For immunoblotting, equal amounts of protein lysates were subjected to SDS-PAGE, transferred to Immobilon-P Millipore and incubated in LI-COR blocking solution at RT for 2 hrs. Primary and secondary antibodies were diluted in LI-COR blocking solution to the appropriate concentrations. LI-COR IRDye secondary antibodies were used. All images were acquired using the LI-COR Odyssey Classic imager and associated Image Studio Lite analysis software (version 5.2.5). Quantification of protein expression was performed by densitometry scans of immunoblots using LI-COR Odyssey imaging system.
Western blot quantifications were performed by protein normalization using GAPDH as loading control. Level of phosphorylated proteins was expressed as the ratio of phosphorylated/total level after GAPDH normalization. Low sample size datasets were tested for normality and when appropriate they were analyzed with non-parametric tests. IC50 values were calculated using the nonlinear regression equation “dose-response curves—Inhibition” of GraphPad PRISM. Data were expressed as percent of vehicle-treated Tsc2-sh neurons which were considered 100% and drug's concentrations were transformed to logarithmic 10 scale. EC50 values were calculated using the nonlinear regression equation “dose-response curves—Stimulation” of Prism. […]

[2] = system: IGF-IRβ, pS6 in wild-type cortical neurons; test: Proteasomal inhibition experiment, Western blot in wild-type cortical neurons; settings: 4 μM 17-AGG alone, 24 hrs at DIV20
Experimental: Hippocampi and cortexes from 18-day-old rat embryos (Charles River CD1) were isolated under the microscope and collected in Hank's Balanced Salt Solution containing 10 mM MgCl2, 1 mM kynurenic acid, 10 mM HEPES and penicillin/streptomycin. After 5 min dissociation at 37° C. in 30 U/ml of papain, neurons were mechanically triturated and plated in Neurobasal (NB) medium containing B27 supplement, 2 mM L-glutamine, penicillin/streptomycin and primocin (NB/B27). Biochemical analysis was performed on cortical cultures plated at 1×10^6 cells/well onto six-well plates. Immunofluorescent analysis was performed on hippocampal cultures plated at 20×10^3 cells/well onto 96-well plates. All plates were coated with 20 μg/ml poly-D-lysine (PDL).
Stocks of drugs were freshly diluted in NB media before performing each experiment. The same amount of vehicle was used as vehicle-only control. For dose response curves serial dilutions were freshly made in NB media by a manual multichannel pipette using compound dilution plates.

[3] = system: hspB1 mRNA in Tsc2-sh neurons; test: qPCR of hspB1 mRNA in Tsc2-sh neurons; settings: 50 nM between DIV9-13
Experimental: Tsc2-sh neurons were treated with 17-AGG and it was observed that increased hspB1 expression was reversed by the same dosing scheme that prevented cilia loss (50 nM between DIV9-13) (FIGS. 6A-D). To determine whether a similar dysregulation is present in the brains of TSC patients, the gene expression data from cortical tubers and unaffected brain tissue (Martin et al., The genomic landscape of tuberous sclerosis complex; Nat Commun 8, 15816 (2017)) was examined.
Total RNA was prepared with the RNA kit (Zimo Research) following the instructions of the manufacturer and quantified by a spectrophotometer. A total of 1 μg of poly(A) mRNA was used for reverse transcription using the Reverse Transcriptase (BIO-RAD). Real-time PCRs were performed using Power SYBG Green PCR Master Mix (Applied Biosystems). All quantitative PCR (qPCR) reactions were performed in triplicate and normalized against glyceraldehyde-3-phosphate dehydrogenase (GAPDH). Analysis was performed using QuantStudio™ 3 Real-Time PCR System (Thermo Fisher Scientific). The qPCR cycle was: 95° C. for 10 min followed by 40 cycles at 95° C. for 15 sec and 60° C. for 1 min.

[4] = system: Tsc2-sh neurons; test: Toxicity: number of nuclei per field in Tsc2-sh neurons; settings: four days (DIV9-13), nuclei stained at DIV13
Experimental: HSP90 inhibitors were tested to determine their effect on ciliation in TSC2-deficient neurons. Tsc2 was knocked down using an shRNA in primary rat neurons. The neurons were then treated with different doses of either CUDC-305 or NPV-HSP-990. To assess toxicity for CUDC-305, Tsc2-sh neurons were treated with increasing concentrations (6 nM, 12.5 nM, 25 nM, 50 nM, 100 nM, 200 nM, 400 nM) of CUDC-305 for four days (DIV9-13) and then stained for nuclei at DIV13 to determine the number of nuclei per field. […] The effect of ciliation of Tsc2-sh neurons after treatment with CUDC-305 was then examined.
Another HSP90 inhibitor, NPV-HSP-990, was examined for its effect on ciliation in TSC2-deficient neurons. To assess toxicity for NPV-HSP-990, Tsc2-sh neurons were treated with increasing concentrations (0.05 nM, 0.16 nM, 0.5 nM, 1.5 nM, 4.4 nM, 13.3 nM, 40 nM) of NPV-HSP-990 for four days (DIV9-13) and then stained for nuclei at DIV 13 to determine the number of nuclei per field.

[5] = Tsc2-sh neurons, four-day dose curve

CO[C@H]1C[C@@H]2CC[C@@H](C)[C@@](O)(O2)C(=O)C(=O)N2CCCC[C@H]2C(=O)O[C@H]([C@H](C)C[C@@H]2CC[C@@H](O)[C@H](OC)C2)CC(=O)[C@H](C)/C=C(\C)[C@@H](O)[C@@H](OC)C(=O)[C@H](C)C[C@H](C)/C=C/C=C/C=C/1C [rapamycin]
Hsp27 upregulation ([1]; Tsc2-sh neurons, 20 nM rapamycin between DIV9-13, measured at DIV13): reduced

C=CCNC1=C2C[C@@H](C)C[C@H](OC)[C@H](O)[C@@H](C)/C=C(\C)[C@H](OC(N)=O)[C@@H](OC)C=C/C=C(\C)C(=O)NC(=CC1=O)C2=O [17-AGG, 3 S,5S,6R,7S,8E,10R,11S,12E,14E)-21-(allylamino)-6-hydroxy-5,11-dimethoxy-3,7,9,15-tetramethyl-16,20,22-trioxo-17-azabicyclo[16.3.1]docosa-8,12,14,18,21-pentaen-10-yl] carbamate]
Hsp40 expression [1, 5]: induction | Hsp70 expression [1, 5]: induction | aberrant Hsp27 expression ([1]; Tsc2 knockdown cultures at DIV13, four days of 17-AGG ranging from 5-450 nM): reduced | Hsp27 expression ([1]; Tsc2 knockdown neurons at DIV20, four days of treatment): no change | IGF-IRβ levels [2]: reduced | increased hspB1 expression [3]: reversed

COc1cccc(-c2cc(F)ccc2[C@H]2Cc3nc(N)nc(C)c3C(=O)N2)n1 [NPV-HSP-990, (R)-2-amino-7-((R)-4-fluoro-2-(6-methoxypyridin-2-yl)phenyl)-4-methyl-7,8-dihydropyrido[4,3-d]pyrimidin-5(6H)-one]
down-regulating Hsp27 expression ([1]; Tsc2-sh neurons): Neither compound had a significant effect | doses at which the number of nuclei began to reduce (suggestive of toxicity) [4]: above 4.4 nM

CN(C)c1cc2c(cc1Sc1nc3c(N)nccc3n1CCNCC(C)(C)C)OCO2 [CUDC-305, 4-amino-2-[[6-(dimethylamino)-1,3-benzodioxol-5-yl]thio]-N-(2,2-dimethylpropyl)-1H-imidazo[4,5-c]pyridine-1-ethanamine]
down-regulating Hsp27 expression ([1]; Tsc2-sh neurons): Neither compound had a significant effect | doses at which the number of nuclei began to reduce (suggestive of toxicity) [4]: above 100 nM

— patent publication US20230218577A1, “USE OF HEAT SHOCK PROTEIN INHIBITORS FOR THE TREATMENT OF NEURODEVELOPMENTAL DISORDERS” (The Children's Medical Center Corporation, priority 2020, published 2023)
